Assay [1] deals with HaCaT. The arrangement: method as in doi:10.1016/j.ica.2020.119542. The note with it: value taken from previous work ref 16; cited from earlier work.
The test system of assay [2] is A549, MCF-7, HEK293, and HaCaT cell cultures. Put plainly: DNA fragmentation assay (agarose gel). In kind it is cell-based. The source says:
DNA fragmentation is a characteristic process of apoptosis. During apoptosis, cell DNA is broken into fragments of specific sizes (multiples of 180–200 bp) due to the action of nucleases activated by effector caspases (caspase-3, caspase-7, and caspase-6). To visualize DNA fragmentation on agarose gels, cultures of MCF-7, A549, HEK293, and HaCaT cells treated with complexes 3 and 4 were harvested under the same conditions as the acridine orange/propidium iodide assay and their nuclei stained. Cell cultures were treated with complexes 3 and 4 using the IC50 calculated previously. Cultures were harvested and centrifuged at 12,000 rpm; pellets were washed twice with PBS and resuspended in lysis buffer (10 mM Tris-HCl (pH 7.4), 5 mM EDTA, 0.2% Triton X-100) with RNase and incubated for 1 h at 37 °C. […]. Proteinase K was then added and incubated for 2 h at 55 °C. Extraction was performed with phenol:chloroform:isoamyl. To precipitate DNA, 96% ethanol, 10 M ammonium acetate, and glycogen were added. Finally, the samples were resuspended in 1X Buffer TE and stored at −20 °C. DNA was electrophoretically separated on a 2% agarose gel with ethidium bromide and visualized by UV transillumination.

For assay [3], the system named is A549 (lung cancer). The arrangement: method as in doi:10.1016/j.ica.2020.119542. The note with it: value taken from previous work ref 16; cited from earlier work.
In assay [4] the test system is A549, MCF-7, HEK293, and HaCaT cell cultures. Put plainly: Nuclei staining with Hoechst 33258. In kind it is cell-based. The source says:
Hoechst dyes are excited by UV light (~360 nm) and emit a broad spectrum of blue light with a maximum at 460 nm. Upon binding to DNA, they increase their fluorescence 30-fold, which ensures a good signal-to-noise ratio. This increase in fluorescence is due to the suppression of rotational relaxation and reduced hydration upon binding to DNA. These dyes are not intercalating; they bind to the minor groove of the DNA in the A-T rich regions. Hoechst dyes are often used to distinguish condensed pyknotic nuclei in apoptotic cells. Briefly, the Hoechst dye stock solution was prepared by dissolving the contents of one vial (100 mg) in 10 mL of deionized water to create a 10 mg/mL (16.23 mM) solution. Then, 5×10^5 cells/mL of A549, MCF-7, HEK293, and HaCaT cells were seeded in 24-well plates on round glass coverslips. Cell cultures were treated with the complexes 3 and 4 using the IC50 calculated previously. At 12 h, the coverslips were removed from the wells. Cells were fixed by adding 200 μL of 4% paraformaldehyde. Later, cells were incubated at 37 °C for 30 min and washed 2 times with PBS. Then, 200 μL Hoechst 33258 (1:1000) was added to the sample and protected from light following incubation at room temperature for 30 min. Subsequently, they were washed 2 times with PBS.

Assay [5] has the same test system. Put plainly: Acridine orange / propidium iodide staining, epifluorescence microscopy. The format is cell-based. The source says: The purpose of using acridine orange (AO) and propidium iodide (PI) is to take advantage of their introduction of viable cells (AO) and non-viable cells (AO/PI) by their intercalating ability in DNA of cells, which by excitation with a wavelength of 400 nm emit radiation of lower energy and longer wavelength (green and red light, respectively). This technique allows differentiating the distinct states in which a cell is found; AO is able to cross the cell membrane regardless of its membrane integrity, so the compound stains all cells, emitting green light and, in some cases, orange if it binds to RNA or where there is high lysosomal activity. PI penetrates the cell when its membrane is damaged by intercalating with higher affinity to DNA and emits red color, eclipsing the intensity caused by AO staining. Briefly, the protocol used for this technique was: 0.5×10^6 cells/mL of A549, MCF-7, HEK293, and HaCaT cells were seeded in 24-well plates on round glass coverslips. All cell cultures were treated with complexes 3 and 4 with the IC50 calculated previously. At 12 h, the coverslips were removed from the wells. Later, 5 μL of a 1:1 mixture of the dyes (50 μg/mL of AO and 100 μg/mL of PI) was added to 5 μL of sample and coverslips were flipped and placed on a slide for observation.

Assay [6] shares this test system. The experiment in a line: Apoptosis detection with annexin V FITC and propidium iodide. In kind it is cell-based. The note with it: at IC50, 12 h. Here is the method:
Annexin V detects apoptosis by binding to phosphatidylserine, which during this process is exposed in the outer layer of the cell membrane. Its conjugation with fluorochromes such as FITC allows visualization of this binding by epifluorescence microscopy in the green channel. The detection of apoptosis was determined with the annexin V kit conjugated with the fluorophore FITC (Thermo, cat. 88-8005-72) under the following protocol: 0.5 × 10^6 cells/mL of A549, MCF-7, HEK293, and HaCaT cells were seeded in 24-well plates on round glass coverslips treated with L-polylysine. […] Cultures were incubated for 12 h under standard culture conditions. Subsequently, the cells were washed with 500 μL of cold PBS and incubated for 5 min in a 1X solution of annexin-binding buffer. Next, 15 μL of annexin V conjugate and 5 μL of propidium iodide (PI) were added, and the mixture was incubated over 15 min at room temperature. After washing with 1X buffer, the cells were observed using an epifluorescence microscope (Nikon Eclipse E400). The red channel (TRITC) identified necrosis due to PI intercalation, while the green channel (FITC) detected apoptosis through binding of the phosphatidylserine–annexin V complex.

In assay [7] the test system is A549, MCF-7, HaCaT and HEK293 cell lines. The note with it: previously calculated value for the cell lines evaluated; cited from earlier work.
For assay [8], the system named is MCF-7 (breast cancer). The arrangement: method as in doi:10.1016/j.ica.2020.119542. The settings on record: value taken from previous work ref 16; cited from earlier work.
The subject of assay [9] is HEK293. The arrangement: method as in doi:10.1016/j.ica.2020.119542. The note with it: value taken from previous work ref 16; cited from earlier work.
For assay [10], the system named is HEK293. The settings on record: HEK293, 24 h, MTS.
Assay [11] has as its system MCF-7 (breast cancer). The settings on record: for IC50: MCF-7, 24 h, MTS; for Selectivity Index (SI): IC50(HaCaT)/IC50(MCF-7).
In assay [12] the test system is A549 (lung cancer). The note with it: for IC50: A549, 24 h, MTS; for Selectivity Index (SI): IC50(HaCaT)/IC50(A549).
For assay [13], the system named is HaCaT. The note with it: 24 h, MTS.
In assay [14] the test system is A549, MCF-7, HaCaT and HEK293 cell lines. The settings on record: for IC50: all the cell lines tested; for increase in potency over cisplatin: considering the concentrations used to determine the IC50.
[15] abbreviates: complexes at IC50 of Table 5, 12 h.

Read-outs that look alike come from different tables or passages of the source.

As usually defined, the IC50 is the concentration that gives 50% inhibition.

Consider `N.N.[Cl][Pt][Cl]` [Cisplatin, cis-[PtCl2(NH3)2]], for which the IC50 in assay [1], in assay [3], in assay [7], in [8] and in assay [9] was 25 µM throughout. Moreover, in assay [2] (cisplatin 25 µM), the DNA fragmentation pattern result is listed as “DNA fragmentation is observed”. In assay [4] (cisplatin 25 µM), the “nuclear morphology, Hoechst 33258” value was “evident change in nuclear structure”. For the same compound, the “morphology, AO/PI staining” value in [5] (cisplatin 25 µM) is listed as “show red nuclei, indicating a decrease in cell viability”. Moreover, in assay [6], the “annexin V-FITC / PI fluorescence” value is “intense signal in the green channel (FITC)”.

Regarding `O=[N+]([O-])[O-].O=[N+]([O-])[O-].[Cu+2]` [Cu(NO3)2, Copper(II) nitrate], the IC50 in [10] stood at 47.6 ± 3.22 µM; in [11], 70.2 ± 2.03 µM; in assay [12] it was 47.8 ± 3.22 µM; in assay [13], 55.5 ± 2.03 µM.

Turning to “Aqua(1,10-phenanthroline-κ^2N,N’)(β^2-methylalaninate-κ^2N,O)copper(II) nitrate [Compound 3]”, the IC50 in [10] was 0.19 ± 0.01 µM; in assay [11], 0.35 ± 0.02 µM; in assay [14] it was below 1 µM; in assay [12], 0.24 ± 0.02 µM; in assay [13], 0.21 ± 0.02 µM. The “Selectivity Index (SI)” value in [11] was determined as 0.6; in assay [12] it was 0.875. In addition, in assay [14], the “increase in potency over cisplatin” value was found to be 83 times. The DNA fragmentation pattern entry in [2] (complexes at IC50 of Table 5) is “specific indication of an apoptotic process”. Moreover, in assay [4] (setting [15]), the “nuclear morphology, Hoechst 33258” value was “decrease in the size of the nuclei, irreversible chromatin condensation, and nuclear fragmentation”. Further, the “morphology, AO/PI staining” value in assay [5] (complexes at IC50, 12 h) is given as “induced morphological features that, in principle, indicate a cell death process”. Further, the “annexin V-FITC / PI fluorescence” value in [6] is recorded as “significant induction of apoptosis”.

Turning to “ethanol(1,10-phenanthroline-κ^2N,N’)(β^2-phenylalaninate-κ^2N,O)copper(II) nitrate [Compound 4]”, the IC50 in assay [10] is 0.32 ± 0.02 µM; in [11] it was 0.4 ± 0.02 µM; in assay [14], below 1 µM; in assay [12], 0.22 ± 0.05 µM; in [13], 0.35 ± 0.09 µM. Further, the entries for the “Selectivity Index (SI)” value in assay [11] and in [12] were 0.87 and 1.59, respectively. In [14], the “increase in potency over cisplatin” value is 83 times. The DNA fragmentation pattern result in [2] (complexes at IC50 of Table 5) is recorded as “specific indication of an apoptotic process”. Also, the “nuclear morphology, Hoechst 33258” value in assay [4] (setting [15]) is “decrease in the size of the nuclei, irreversible chromatin condensation, and nuclear fragmentation”. In assay [5] (complexes at IC50, 12 h), the “morphology, AO/PI staining” value is “induced morphological features that, in principle, indicate a cell death process”. The “annexin V-FITC / PI fluorescence” value in assay [6] is listed as “significant induction of apoptosis”.

The record behind these values is publication PMC11820680, “Synthesis of (1,10-Phenanthroline-κ^2N,N′)(β^2-Methyl- and β^2-PhenylAlaninate-κ^2N,O)Copper(II) Nitrate Complexes and Their Antiproliferative Activity on MCF-7 and A549 Cancer Cell Lines” (Molecules, 2025).
